Laboratory results from the supplement of paper PMC10307832.

Assays:
Assay in all cases: relative viability (nuclei count vs DMSO), 5 days (fraction); higher = more cells survive
[1] = compound: Nc1ncn([C@H]2C[C@H](O)[C@@H](CO)O2)c(=O)n1 [Decitabine] + Cc1nc(Nc2ncc(C(=O)Nc3c(C)cccc3Cl)s2)cc(N2CCN(CCO)CC2)n1 [Dasatinib] (partner 0.075 µM)
In short: (§1)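 Cells from lung cancer lines were seeded into 1536-well plates and, one day later, dosed by pin tool. Treatments were either a single drug or a fixed dose of an anchor drug with five library-drug doses (not always all listed) in √10 steps. After 5 days, nuclei were stained in a one-step fixation (final 0.05% Triton X-100, 1% formaldehyde, 1 ug/ml Hoechst) and counted on 4× images, and relative viability is the treated-to-vehicle nuclei ratio, as the median of duplicate plates.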

[2] = compound: Nc1ncn([C@H]2C[C@H](O)[C@@H](CO)O2)c(=O)n1 [Decitabine] + CC1(C)CCC(c2ccc(Cl)cc2)=C(CN2CCN(c3ccc(C(=O)NS(=O)(=O)c4ccc(N[C@H](CCN5CCOCC5)CSc5ccccc5)c(S(=O)(=O)C(F)(F)F)c4)cc3)CC2)C1 [Navitoclax] (partner 0.5 µM)
In short: as §1

[3] = compound: COc1cc2c(Oc3ccc4[nH]c(C)cc4c3F)ncnc2cc1OCCCN1CCCC1 [Cediranib] + O=C(c1cc(Cc2n[nH]c(=O)c3ccccc23)ccc1F)N1CCN(C(=O)C2CC2)CC1 [Olaparib] (partner 8 µM)
In short: as §1

[4] = compound: COc1cc2c(Oc3ccc4[nH]c(C)cc4c3F)ncnc2cc1OCCCN1CCCC1 [Cediranib] + Nc1nc2[nH]cc(CCc3ccc(C(=O)N[C@@H](CCC(=O)O)C(=O)O)cc3)c2c(=O)[nH]1 [Pemetrexed] (partner 0.2 µM)
In short: as §1

NCI-H1650
relative viability ([1]; first compound 0.04 µM): 0.328 | relative viability ([1]; first compound 0.1265 µM): 0.314 | relative viability ([1]; first compound 0.4 µM): 0.247 | relative viability ([1]; first compound 1.265 µM): 0.26 | relative viability ([1]; first compound 4 µM): 0.248 | relative viability ([2]; first compound 0.04 µM): 0.546 | relative viability ([2]; first compound 0.1265 µM): 0.482 | relative viability ([2]; first compound 0.4 µM): 0.434 | relative viability ([2]; first compound 1.265 µM): 0.329 | relative viability ([2]; first compound 4 µM): 0.295 | relative viability ([3]; first compound 0.04 µM): 0.825 | relative viability ([3]; first compound 0.1265 µM): 0.801 | relative viability ([3]; first compound 0.4 µM): 0.771 | relative viability ([3]; first compound 1.265 µM): 0.707 | relative viability ([3]; first compound 4 µM): 0.845 | relative viability ([4]; first compound 0.04 µM): 0.394 | relative viability ([4]; first compound 0.1265 µM): 0.364 | relative viability ([4]; first compound 0.4 µM): 0.38 | relative viability ([4]; first compound 1.265 µM): 0.349 | relative viability ([4]; first compound 4 µM): 0.384

SW 1573
relative viability ([1]; first compound 0.04 µM): 0.458 | relative viability ([1]; first compound 0.1265 µM): 0.433 | relative viability ([1]; first compound 0.4 µM): 0.416 | relative viability ([1]; first compound 1.265 µM): 0.153 | relative viability ([1]; first compound 4 µM): 0.163 | relative viability ([2]; first compound 0.04 µM): 1.15 | relative viability ([2]; first compound 0.1265 µM): 0.89 | relative viability ([2]; first compound 0.4 µM): 0.687 | relative viability ([2]; first compound 1.265 µM): 0.356 | relative viability ([2]; first compound 4 µM): 0.217 | relative viability ([3]; first compound 0.04 µM): 0.522 | relative viability ([3]; first compound 0.1265 µM): 0.485 | relative viability ([3]; first compound 0.4 µM): 0.504 | relative viability ([3]; first compound 1.265 µM): 0.42 | relative viability ([3]; first compound 4 µM): 0.488 | relative viability ([4]; first compound 0.04 µM): 0.981 | relative viability ([4]; first compound 0.1265 µM): 0.954 | relative viability ([4]; first compound 0.4 µM): 0.844 | relative viability ([4]; first compound 1.265 µM): 0.826 | relative viability ([4]; first compound 4 µM): 0.908

LU99A
relative viability ([1]; first compound 0.04 µM): 0.508 | relative viability ([1]; first compound 0.1265 µM): 0.615 | relative viability ([1]; first compound 0.4 µM): 0.653 | relative viability ([1]; first compound 1.265 µM): 0.481 | relative viability ([1]; first compound 4 µM): 0.373 | relative viability ([2]; first compound 0.04 µM): 0.745 | relative viability ([2]; first compound 0.1265 µM): 0.711 | relative viability ([2]; first compound 0.4 µM): 0.771 | relative viability ([2]; first compound 1.265 µM): 0.53 | relative viability ([2]; first compound 4 µM): 0.502 | relative viability ([3]; first compound 0.04 µM): 0.236 | relative viability ([3]; first compound 0.4 µM): 0.244 | relative viability ([3]; first compound 1.265 µM): 0.267 | relative viability ([3]; first compound 4 µM): 0.314 | relative viability ([4]; first compound 0.04 µM): 0.173 | relative viability ([4]; first compound 0.4 µM): 0.172 | relative viability ([4]; first compound 1.265 µM): 0.2 | relative viability ([4]; first compound 4 µM): 0.17

LCLC-97TM1
relative viability ([1]; first compound 0.04 µM): 0.535 | relative viability ([1]; first compound 0.1265 µM): 0.507 | relative viability ([1]; first compound 0.4 µM): 0.42 | relative viability ([1]; first compound 1.265 µM): 0.222 | relative viability ([1]; first compound 4 µM): 0.119 | relative viability ([2]; first compound 0.04 µM): 0.16 | relative viability ([2]; first compound 0.1265 µM): 0.194 | relative viability ([2]; first compound 0.4 µM): 0.172 | relative viability ([2]; first compound 1.265 µM): 0.103 | relative viability ([2]; first compound 4 µM): 0.684 | relative viability ([3]; first compound 0.04 µM): 0.468 | relative viability ([3]; first compound 0.4 µM): 0.384 | relative viability ([3]; first compound 1.265 µM): 0.301 | relative viability ([3]; first compound 4 µM): 0.504 | relative viability ([4]; first compound 0.04 µM): 0.205 | relative viability ([4]; first compound 0.4 µM): 0.154 | relative viability ([4]; first compound 1.265 µM): 0.218 | relative viability ([4]; first compound 4 µM): 0.177

LC-2-ad
relative viability ([1]; first compound 0.04 µM): 0.416 | relative viability ([1]; first compound 0.1265 µM): 0.603 | relative viability ([1]; first compound 0.4 µM): 0.404 | relative viability ([1]; first compound 1.265 µM): 0.262 | relative viability ([1]; first compound 4 µM): 0.261 | relative viability ([2]; first compound 0.04 µM): 0.323 | relative viability ([2]; first compound 0.1265 µM): 0.325 | relative viability ([2]; first compound 0.4 µM): 0.253 | relative viability ([2]; first compound 1.265 µM): 0.197 | relative viability ([2]; first compound 4 µM): 0.148 | relative viability ([3]; first compound 0.04 µM): 0.737 | relative viability ([3]; first compound 0.1265 µM): 0.689 | relative viability ([3]; first compound 0.4 µM): 0.664 | relative viability ([3]; first compound 1.265 µM): 0.732 | relative viability ([3]; first compound 4 µM): 0.839 | relative viability ([4]; first compound 0.04 µM): 0.289 | relative viability ([4]; first compound 0.1265 µM): 0.3 | relative viability ([4]; first compound 0.4 µM): 0.278 | relative viability ([4]; first compound 1.265 µM): 0.298 | relative viability ([4]; first compound 4 µM): 0.275

NCI-H1395
relative viability ([1]; first compound 0.04 µM): 0.409 | relative viability ([1]; first compound 0.1265 µM): 0.416 | relative viability ([1]; first compound 0.4 µM): 0.428 | relative viability ([1]; first compound 1.265 µM): 0.413 | relative viability ([1]; first compound 4 µM): 0.417 | relative viability ([2]; first compound 0.04 µM): 0.913 | relative viability ([2]; first compound 0.1265 µM): 0.733 | relative viability ([2]; first compound 0.4 µM): 0.715 | relative viability ([2]; first compound 1.265 µM): 0.598 | relative viability ([2]; first compound 4 µM): 0.703 | relative viability ([3]; first compound 0.04 µM): 0.472 | relative viability ([3]; first compound 0.1265 µM): 0.448 | relative viability ([3]; first compound 0.4 µM): 0.474 | relative viability ([3]; first compound 1.265 µM): 0.541 | relative viability ([3]; first compound 4 µM): 0.42 | relative viability ([4]; first compound 0.04 µM): 0.915 | relative viability ([4]; first compound 0.1265 µM): 0.985 | relative viability ([4]; first compound 0.4 µM): 0.825 | relative viability ([4]; first compound 1.265 µM): 0.76 | relative viability ([4]; first compound 4 µM): 0.801

NCI-H2228
relative viability ([1]; first compound 0.04 µM): 0.324 | relative viability ([1]; first compound 0.1265 µM): 0.354 | relative viability ([1]; first compound 0.4 µM): 0.135 | relative viability ([1]; first compound 1.265 µM): 0.161 | relative viability ([1]; first compound 4 µM): 0.155 | relative viability ([2]; first compound 0.04 µM): 0.667 | relative viability ([2]; first compound 0.1265 µM): 0.525 | relative viability ([2]; first compound 0.4 µM): 0.264 | relative viability ([2]; first compound 1.265 µM): 0.337 | relative viability ([2]; first compound 4 µM): 0.21 | relative viability ([3]; first compound 0.04 µM): 0.801 | relative viability ([3]; first compound 0.1265 µM): 1.02 | relative viability ([3]; first compound 0.4 µM): 0.642 | relative viability ([3]; first compound 1.265 µM): 0.707 | relative viability ([3]; first compound 4 µM): 0.556 | relative viability ([4]; first compound 0.04 µM): 0.351 | relative viability ([4]; first compound 0.1265 µM): 0.346 | relative viability ([4]; first compound 0.4 µM): 0.359 | relative viability ([4]; first compound 1.265 µM): 0.325 | relative viability ([4]; first compound 4 µM): 0.325

NCI-H1944
relative viability ([1]; first compound 0.04 µM): 0.201 | relative viability ([1]; first compound 0.1265 µM): 0.242 | relative viability ([1]; first compound 0.4 µM): 0.177 | relative viability ([1]; first compound 1.265 µM): 0.2 | relative viability ([1]; first compound 4 µM): 0.211 | relative viability ([2]; first compound 0.04 µM): 0.689 | relative viability ([2]; first compound 0.1265 µM): 0.669 | relative viability ([2]; first compound 0.4 µM): 0.564 | relative viability ([2]; first compound 1.265 µM): 0.423 | relative viability ([2]; first compound 4 µM): 0.365 | relative viability ([3]; first compound 0.04 µM): 0.391 | relative viability ([3]; first compound 0.1265 µM): 0.394 | relative viability ([3]; first compound 0.4 µM): 0.395 | relative viability ([3]; first compound 1.265 µM): 0.407 | relative viability ([3]; first compound 4 µM): 0.376 | relative viability ([4]; first compound 0.04 µM): 0.709 | relative viability ([4]; first compound 0.1265 µM): 0.473 | relative viability ([4]; first compound 0.4 µM): 0.562 | relative viability ([4]; first compound 1.265 µM): 0.593 | relative viability ([4]; first compound 4 µM): 0.713
